Data from ChEMBL document CHEMBL1136837, “Unified QSAR approach to antimicrobials. 4. Multi-target QSAR modeling and comparative multi-distance study of the giant components of antiviral drug-drug complex networks” (Bioorg Med Chem, 2009).

tested on: Human immunodeficiency virus 1; experiment: Antiviral activity against HIV1; assay type: functional, organism-based

In order of rising IC50:
1. CCOC(=O)Cc1c(N)nc(N)nc1OCCOCP(=O)(O)O  0.3 nM
2. Cc1cc(/C=C/C#N)cc(C)c1Nc1ccnc(Nc2ccc(C#N)cc2)n1 [RILPIVIRINE]  0.4 nM
3. CCO/N=C(\c1ccc(Br)cc1)C1CCN(C2(C)CCN(C(=O)c3c(C)ccc[n+]3[O-])CC2)CC1  1.7 nM
4. CC(C)CN(C[C@@H](O)[C@H](Cc1ccccc1)NC(=O)O[C@H]1CCOC1)S(=O)(=O)c1ccc(N)cc1  2 nM
5. Cc1ccc(S(=O)(=O)c2c(C(N)=O)[nH]c3ccc(Cl)cc23)c(C)c1  4 nM
6. Cc1cc(C)cc(Sc2c(C(N)=O)[nH]c3ccc(Cl)cc23)c1  6 nM
7. Cc1cccc(C)c1OCC(=O)N[C@@H](Cc1ccccc1)[C@@H](O)C[C@H](Cc1ccccc1)NC(=O)[C@H](C(C)C)N1CCCNC1=O [LOPINAVIR]  34 nM
8. Cc1c(C(C)c2c(F)cccc2F)nc(NC2CCCC2)[nH]c1=O (centres undefined)  35 nM
9. Cc1cc(C)nc(N2C(=O)CSC2c2c(F)cccc2Cl)c1 (centres undefined)  42 nM
10. O=c1cc(Cc2c(F)cccc2F)nc(SC2CCCC2)[nH]1  80 nM
11. Nc1ccn([C@@H]2C=C(F)[C@H](CO)O2)c(=O)n1  89 nM
12. Cc1ccnc(N2C(=O)CSC2c2c(F)cccc2Cl)c1 (centres undefined)  99 nM
13. C#C[C@@]1(CO)C=C[C@H](n2cc(C)c(=O)[nH]c2=O)O1 [CENSAVUDINE]  250 nM
14. Nc1nc2c(ncn2C2C=CC(OCP(=O)(O)OP(=O)(O)OP(=O)(O)O)C2)c(=O)[nH]1 (centres undefined)  300 nM
15. NC(=O)c1[nH]c2ccc(Cl)cc2c1S(=O)(=O)c1cc(Cl)ccc1N  300 nM
16. NC(=O)c1cccc2c1nc(-c1c(F)cccc1F)n2Cc1c(F)cccc1F  370 nM
17. O=C1CSC(c2c(F)cccc2F)N1c1ccccn1 (centres undefined)  855 nM
18. C=C(C)[C@@H]1CC[C@]2(C(=O)NCCCCCCCC(=O)O)CC[C@]3(C)[C@H](CC[C@@H]4[C@@]5(C)CC[C@H](O)C(C)(C)[C@@H]5CC[C@]43C)[C@@H]12  1000 nM
19. O=C1CSC(c2c(Cl)cccc2Cl)N1c1ccc(Br)cn1 (centres undefined)  1510 nM
20. CC(C)c1ccc(Sc2c(C(N)=O)[nH]c3ccc(Cl)cc23)cc1  1900 nM
21. O=C1CSC(c2c(F)cccc2Cl)N1c1ccc(Cl)cn1 (centres undefined)  2130 nM
22. C=C(C)[C@@H]1CC[C@]2(C(=O)N[C@@H](CC(C)C)C(=O)O)CC[C@]3(C)[C@H](CC[C@@H]4[C@@]5(C)CC[C@H](O)C(C)(C)[C@@H]5CC[C@]43C)[C@@H]12  3220 nM
23. CC(C)(C)c1ccc(Sc2c(C(N)=O)[nH]c3ccc(Cl)cc23)cc1  8000 nM
24. NC(=O)c1[nH]c2ccccc2c1Sc1cc(Cl)ccc1N  9000 nM
25. CC(=O)OCc1cc2ccc3c(c2oc1=O)[C@@H](OC(=O)[C@@]12CC[C@](C)(C(=O)O1)C2(C)C)[C@@H](OC(=O)[C@@]12CC[C@](C)(C(=O)O1)C2(C)C)C(C)(C)O3  11600 nM
26. Cc1cc(=O)oc2c3c(c(CN)cc12)OC(C)(C)[C@H](OC(=O)[C@@]12CC[C@](C)(C(=O)O1)C2(C)C)[C@@H]3OC(=O)[C@@]12CC[C@](C)(C(=O)O1)C2(C)C  15000 nM
27. CC(=O)Oc1ccc(/C=C/C(=O)O[C@H](C(=O)O)[C@H](OC(=O)/C=C/c2ccc(OC(C)=O)c(OC(C)=O)c2)C(=O)O)cc1OC(C)=O  15600 nM
28. CC1(C)Oc2ccc3cc(CO)c(=O)oc3c2[C@@H](OC(=O)[C@@]23CC[C@](C)(C(=O)O2)C3(C)C)[C@H]1OC(=O)[C@@]12CC[C@](C)(C(=O)O1)C2(C)C  23000 nM
29. C=C(C)[C@@H]1CC[C@]2(C(=O)N[C@@H](CC(C)C)C(=O)OC)CC[C@]3(C)[C@H](CC[C@@H]4[C@@]5(C)CC[C@H](OC(C)=O)C(C)(C)[C@@H]5CC[C@]43C)[C@@H]12  40000 nM
30. Nc1ncnc2c1ncn2[C@@H]1CC(F)(F)[C@H](CO)O1  100000 nM
31. Cc1cn([C@H]2C=C[C@@](C)(CO)O2)c(=O)[nH]c1=O  100000 nM
32. O=c1nc(O)ccn1[C@@H]1CC(F)(F)[C@H](CO)O1  100000 nM
33. CC(=O)Nc1ccc(C(OCCn2c([N+](=O)[O-])cnc2C)c2ccccc2)cc1 (centres undefined)  200000 nM
34. NC(=O)c1cn(S(=O)(=O)c2ccccc2)c2cc(Cl)ccc12  200000 nM
